# Measurements taken from article PMC10670708, “A New Synthetic Curcuminoid Displays Antitumor Activities in Metastasized Melanoma” (Cells, 2023).
# Values joined by “and” are separate entries in the source; they are usually repeats but may differ in a detail not shown here. Equal values may be shown once. “Also recorded” adds a separate entry of the source.
# Tests used:
# [1] = test system: M2-polarized bone-marrow-derived macrophages; assay: Phenotype modulation of M2-polarized BMDM (RT-qPCR); type: cell-based, mice (C57BL/6); conditions: M2-polarized primary macrophages; for Ccl3 expression: half of RAW IC50
# Protocol: Bone marrow was extracted from 8-weeks-old C57BL/6 mice (Charles River, Erkrat, Germany) and matured into primary macrophages in the presence of macrophage colony-stimulating factor (M-CSF). Briefly, mice were sacrificed by cervical dislocation, and the femurs and tibias were isolated under sterile conditions and rinsed with cold PBS supplemented with 2% heat-inactivated FBS and 1% penicillin/streptomycin using a 21G needle and a 10 mL syringe (Braun, Kronberg, Germany). Cell suspensions were passed through a 70 µm cell strainer (Milteny, Bergisch Gladbach, Germany). The remaining red blood cells were lysed with red cell lysis buffer (eBioscience, San Diego, CA, USA) and the resulting bone marrow cells resuspended in fully supplemented Iscove’s modified Dulbecco’s medium (Gibco) plus 25 ng/mL M-CSF (from a 1 mg/mL M-CSF stock solution in PBS, M-CSF, ImmunoTools, Friesoythe, Germany). Five million cells were cultured on bacterial culture plates (Sigma-Aldrich, Germany) in a total volume of 10 mL. After 4 days, half of the medium was substituted by fresh medium to yield primary macrophages after an additional 4 days.
# For M2-type polarization, BMDM medium was exchanged for fresh medium containing 20 ng/mL IL-4 and 20 ng/mL IL-13 (ImmunoTools, Germany), and cells were incubated for 24 h. […] IC50 concentrations were calculated as described above for the cytotoxicity assays.
# (§1) Total RNA was extracted via phenol extraction from cells using RNA-Solv® reagent (VWR International GmbH, Hessen, Germany) as described in the manual of the manufacturer. RNA was purified with the Monarch® Total RNA Miniprep Kit (New England BioLabs GmbH, Frankfurt am Main, Germany) following the manual of the manufacturer. For RNA extraction from lung tissue, the accessory lobe of the right lung was mechanically homogenized in 1 mL RNA-Solv® reagent using the Tissue Lyser II (Qiagen, Venlo, The Netherlands). A 100 µL amount of the suspension was mixed with 900 µL RNA-Solv® reagent, and total RNA extraction was performed using the Monarch® Total RNA Miniprep Kit as described in the manual of the manufacturer.
# (§2) RNA content of the extracted solution was measured optically using the Infinite® 200 PRO spectrofluorometer (TECAN, Switzerland), and 25 ng RNA per reaction was used in the following analysis.
# (§3) Transcript levels of β-Actin were used to normalize data and to control for RNA integrity. Samples were amplified with the Luna® Universal One-Step RT-qPCR Kit (New England BioLabs GmbH, Frankfurt am Main) and analyzed using a Step One Plus sequence amplification system from LifeTechnologies (Darmstadt, Germany). For normalization, results were expressed as the ratio of the copy numbers of the target gene divided by the number of copies of the housekeeping gene (β-Actin) within individual PCR runs.
# [2] = test system: metastatic lung tissue transcripts; assay: RT-qPCR of transcripts in lung tissue of treated mice; type: in vivo, mice (C57BL/6); conditions: MePip-SF5 60 mg/kg, vs controls
# Protocol: as §1, §2, §3
# (§4) At 8, 11 and 14 days after melanoma cell injection, groups of mice (n = 10) received an intraperitoneal injection of isogarcinol (15 mg/kg) or MePip-SF5 (60 mg/kg) of 200 µL, while non-treated control mice received equal volumes of PBS. At day 16, mice were sacrificed, and organs (lungs, liver, kidneys and spleen) and blood were sampled for further analysis.
# [3] = test system: RAW 264.7 murine macrophages; assay: Cytotoxicity assay (resazurin), RAW 264.7; type: cell-based; conditions: Mus musculus, RAW264.7, 48 h
# Protocol: (§5) 3T3 murine fibroblasts (ATCC # CRL-1658), B16F10 murine melanoma cells (ATCC # CRL-6475) and RAW 264.7 murine macrophages (ATCC # TIB-71) were cultured in Dulbecco’s modified eagle’s high-glucose medium (Sigma Aldrich, Darmstadt, Germany) supplemented with 10% fetal bovine serum (FBS), 1% streptomycin–penicillin (Gibco, Darmstadt, Germany) and 1% L-glutamine (Gibco, Germany). AML12 murine hepatocytes (ATCC # CRL-2254) were cultivated in Dulbecco’s modified eagle’s F-12 Ham media supplemented as described above plus 10 µg/mL insulin, 5.5 µg/mL transferrin, 5 ng/mL selenium (all from Thermo Fisher Scientific, Braunschweig, Germany) and 40 ng/mL dexamethasone (Sigma Aldrich). All cells were maintained in a humidified incubator at 37 °C under 5% CO2. Cells were passaged when they reached semi-confluency. For detachment, cells were thoroughly rinsed with Dulbecco’s phosphate-buffered saline (PBS) without calcium and magnesium (Sigma Aldrich) and enzymatically treated using TrypLE™ Express (1×) (Gibco, Germany). FBS-containing medium was added to stop enzymatic activity.
# (§6) A total of 1000 cells were seeded per well in 100 µL medium (for details, see above) using 96-well plates (Greiner Bio-On, Frickenhausen, Germany). After 24 h, curcumin, garcinol (both from Sigma Aldrich), MePip-SF5 and isogarcinol (synthesized as described previously) were added to the wells at concentrations ranging from 0.5 to 64 µM (6 wells per concentration step) and incubated at […] for 48 h. For the preparation of the compounds, drugs were dissolved in DMSO at a concentration of 40 mM for stock solutions and freshly diluted with PBS to a working stock of 4 mM on the day of the experiment.
# (§7) After the incubation, resazurin (Sigma Aldrich) was dissolved in fully supplemented media and added to a final concentration of 25 µg/mL per well. After incubation for 3 h, the absorbance of resorufin (7-hydroxy-3H-phenoxazin-3-one), the enzymatic product of resazurin, in the wells was measured on an Infinite M200Pro spectrofluorometer (TECAN, Männedorf, Switzerland) at an excitation of 570 nm. Based on the determined dose–response curves, IC50 concentrations were calculated by Prism 10 (GraphPad Software Version 10.1.0, La Jolla, CA, USA) using nonlinear regression analysis after conversion of concentrations to logarithmic scale.
# AML12 murine hepatocytes = assay: Cytotoxicity assay (resazurin), AML12; type: cell-based; conditions: Mus musculus, 48 h
# Protocol: as §5, §6, §7
# C57BL/6 mice = assay: Safety laboratory and biometric parameters in treated metastasis-bearing mice; type: in vivo; conditions: for tolerability at the applied doses: MePip-SF5 60 mg/kg, isogarcinol 15 mg/kg i.p. ×3; for safety laboratory parameters (LDH, creatinine, urea, ALT, AST, GLDH, γ-GT, Bilirubin, ALP): serum, day 16
# Protocol: as §4
# [4] = test system: B16F10 pulmonary melanoma metastases; assay: In vivo antitumor therapy, pulmonary metastasis of B16F10 melanoma; design: species or system mice (C57BL/6); conditions: for pulmonary tumor load / antitumor effect: MePip-SF5 60 mg/kg, isogarcinol 15 mg/kg i.p. days 8, 11, 14, day 16, vs vehicle
# Protocol: Eight-weeks-old female C57BL/6 mice (body weight ~20 g) were purchased from Charles River (Sulzfeld, Germany) and kept under 12 h light–dark cycles at 25 °C and 40–60% humidity with humane care. Mice had access to regular chow and water ad libitum. Pulmonary metastases were generated by tail vein injection. A total of 500,000 B16F10 cells were resuspended in sterile 100 µL PBS (cell viability > 90%) and injected into the tail vein of the mice while animals were immobilized in a mouse restrainer (G&P Kunststofftechnik, Kassel, Germany). At 8, 11 and 14 days after melanoma cell injection, groups of mice (n = 10) received an intraperitoneal injection of isogarcinol (15 mg/kg) or MePip-SF5 (60 mg/kg) of 200 µL, while non-treated control mice received equal volumes of PBS. At day 16, mice were sacrificed, and organs (lungs, liver, kidneys and spleen) and blood were sampled for further analysis. Tumor nodules of the left and right lobes of the lungs were macroscopically counted. Pictures of the lungs were taken with a Stemi 2000-C binocular (Carl Zeiss, Jena, Germany), and a mm scale was pictured to create a mm grid in ImageJ software (latest version 1.54f (National Institute of Health, Bethesda, MD, USA). In addition to surface lesion counts, tumors were categorized by their size into categories of <1 mm and <2 mm. Afterwards, both lobes were formalin fixed, paraffin embedded and sectioned (5 µm) to assess intrapulmonary tumor burden. Sections were stained with ready-to-use hematoxylin and eosin staining solution (Carl Roth, Karlsruhe, Germany) for 5 min at room temperature and washed in distilled water and 0.5% acetic acid. Per mouse, lungs were cut into 4–5 parts and then microtome thin-sectioned ([…]). Then, 4 lung sections were randomly selected and analyzed. Sections were tile-scanned with a Leica microscope (DMi8). Pictures were binarized and the percentage of healthy vs. tumor lung tissue measured by ImageJ software using an adjusted threshold setting. Data are expressed as means ± SD per mouse (n = 10 treated group; and n = 11 per control group).
# 3T3 murine fibroblasts = assay: Cytotoxicity assay (resazurin), 3T3; type: cell-based; conditions: 3T3 fibroblasts; for IC50: Mus musculus, Fibroblast, 48 h, resazurin
# Protocol: as §5, §6, §7
# [5] = test system: B16F10 murine melanoma cells; assay: Cytotoxicity assay (resazurin), B16F10; type: cell-based; conditions: for IC50: Mus musculus, B16-F10, 48 h, resazurin
# Protocol: as §5, §6, §7
# [6] = test system: various solid tumor cell lines (including colon cancer and glioblastoma cells); conditions: exceeded the activities of previous curcuminoids; cited from earlier work
# healthy C57BL/6 mice = assay: In vivo toxicity and dose finding; conditions: for maximum tolerated single dose without signs of acute toxicity: intraperitoneal, twice weekly, escalating doses, n = 2, weight loss and abnormal behavior
# Protocol: Groups of 2 mice (C57BL/6) were challenged with increasing doses of MePip-SF5 or isogarcinol. Stock solutions of drugs (40 mM in DMSO, corresponding to 24 mg/mL for isogarcinol and 21 mg/mL for MePip-SF5) were freshly dissolved in PBS, yielding a total injection volume of 100 µL. Prepared drug solutions were intraperitoneally injected twice weekly (Monday and Friday) over 4 weeks. Drug doses were doubled each week, starting with 15 mg/kg body weight. Physical appearance and body weight were closely monitored. Toxic dose was defined as body weight loss of ≥10% in one week, abnormal behavior or when mice lost ≥5% of their body weight in two consecutive weeks.
# [7] = test system: gemcitabine-resistant pancreatic cancer patients; design: method as in PMID 20859741; conditions: cited from earlier work
Structure (SMILES),Ccl3 expression [1],IC50 [3] [µM],IC50 (AML12 murine hepatocytes) [µM],tolerability at the applied doses (C57BL/6 mice),"safety laboratory parameters (LDH, creatinine, urea, ALT, AST, GLDH, γ-GT, Bilirubin, ALP) (C57BL/6 mice)",pulmonary tumor load / antitumor effect [4],IC50 (3T3 murine fibroblasts) [µM],IC50 [5] [µM],maximum tolerated single dose without signs of acute toxicity (healthy C57BL/6 mice) [mg/kg],further results
"CN1C/C(=C\c2ccc(S(F)(F)(F)(F)F)cc2)C(=O)/C(=C/c2ccc(S(F)(F)(F)(F)F)cc2)C1 [MePip-SF5, (E)-1-methyl-3,5-bis(4-pentafluorothiobenzylidene)-4-piperidone]",upregulated,1.3,2.3,well tolerated,remained normal,significantly (p < 0.05) lower; also recorded: robust antitumor effect,0.7,2.8,60,"Inos expression [1]: no effect; Ccl2 expression ([1]; effective dose of 0.6 µM): increased; Bax expression in lungs [2]: remained unchanged; Bcl2 expression in lungs [2]: remained unchanged; Hif1a expression in lungs [2]: did not affect; Il6 expression in lungs [2]: did not affect; Ki67 expression in lungs [2]: trend of reduced expression; Bub1 expression in lungs ([2]; 60 mg/kg): significantly (p < 0.05) reduced; also recorded: significantly downregulated; Ccl3 expression in lungs ([2]; 60 mg/kg): significantly (p < 0.05) reduced; Tnfa expression in lungs ([2]; 60 mg/kg): significantly (p < 0.05) reduced; proportion of healthy lung tissue (morphometric, thin sections) ([4]; 60 mg/kg i.p. days 8, 11, 14, vs PBS-treated controls): significantly higher; numbers of macroscopic tumor nodules of size ≤ 1 mm in the lungs ([4]; i.p. days 8, 11, 14, sacrifice day 16, vs controls and isogarcinol-treated mice): significantly (p < 0.05) lower; times more active than parent drug curcumin (3T3 murine fibroblasts; ratio of IC50): 10 ×; antiproliferative activity [6]: high antiproliferative activity; could be dosed more highly than isogarcinol (healthy C57BL/6 mice; ratio of tolerated doses): 8 ×"
COc1cc(/C=C/C(=O)CC(=O)/C=C/c2ccc(O)c(OC)c2)ccc1O [curcumin],,5.5,10.8,,,,6.8,13.8,,1-year survival rate ([7]; 95% confidence interval 4.4–41.4%): 19%; median survival ([7]; 95% confidence interval 109–223 days): 161 days
CC(C)=CC[C@H]1C[C@@]23C[C@@H](CC=C(C)C)C(C)(C)[C@@](CC=C(C)C)(C(=O)C(C(=O)c4ccc(O)c(O)c4)=C2OC1(C)C)C3=O [isogarcinol],increased,2.3,4.3,well tolerated,remained normal,ineffective; also recorded: failed to show activity,3.2,2.1,15,stronger activity than original substance garcinol [5]: 40% and ~ 40%
"C=C(C)[C@@H](CC=C(C)C)C[C@@]12C[C@@H](CC=C(C)C)C(C)(C)[C@@](CC=C(C)C)(C(=O)C(C(=O)c3ccc(O)c(O)c3)=C1O)C2=O [garcinol, reference compound]",not,3.8,10.1,,,,8.7,3.1,,
